Among the data in ChEMBL document CHEMBL2177054, “Rational design of conformationally constrained cyclopentapeptide antagonists for C-x-C chemokine receptor 4 (CXCR4)” (J Med Chem, 2012) are EC50 values, retold here.

A word on the EC50: it is the concentration needed to bring the measured effect to its halfway point.

A value given as a limit tells only on which side of the number the result lay.

The target of this assay is C-X-C chemokine receptor type 4 (Homo sapiens, UniProt P61073). Nature of the assay: Antagonist activity against human CXCR4 expressed in COS7 cells assessed as inhibition of CXCL12-induced myo-[3H]inositol production by scintillation counting. Format: functional, cell-based, COS-7.
Chain of C-X-C chemokine receptor type 4 (P61073 whole entry): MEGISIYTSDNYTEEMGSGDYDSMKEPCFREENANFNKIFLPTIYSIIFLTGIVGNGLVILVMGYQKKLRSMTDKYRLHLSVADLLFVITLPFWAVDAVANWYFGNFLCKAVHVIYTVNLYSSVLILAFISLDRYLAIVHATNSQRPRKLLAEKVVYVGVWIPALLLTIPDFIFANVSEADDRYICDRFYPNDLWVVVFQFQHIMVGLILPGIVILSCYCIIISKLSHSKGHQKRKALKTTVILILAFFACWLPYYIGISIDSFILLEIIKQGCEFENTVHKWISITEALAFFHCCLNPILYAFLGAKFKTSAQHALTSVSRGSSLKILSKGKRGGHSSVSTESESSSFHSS
As for `CC1(C)NC(=O)[C@@H](Cc2ccc(O)cc2)NC(=O)CNC(=O)[C@H](Cc2ccc3ccccc3c2)NC(=O)[C@H](CCCNC(=N)N)NC1=O`, the EC50 was found to be 3.6 µM.

Consider `N=C(N)NCCC[C@@H]1NC(=O)C2(CCCCC2)NC(=O)[C@@H](Cc2ccc(O)cc2)NC(=O)CNC(=O)[C@H](Cc2ccc3ccccc3c2)NC1=O`, for which the concentration giving a half-maximal response (EC50) worked out at 5.4 µM.

For `N=C(N)NCCC[C@@H]1NC(=O)[C@H](CCCNC(N)=O)NC(=O)[C@@H](Cc2ccc(O)cc2)NC(=O)CNC(=O)[C@H](Cc2ccc3ccccc3c2)NC1=O`, the EC50 stood at 2.9 µM.

Consider `N=C(N)NCCC[C@@H]1NC(=O)[C@H](Cc2ccccc2)NC(=O)[C@@H](Cc2ccc(O)cc2)NC(=O)CNC(=O)[C@H](Cc2ccc3ccccc3c2)NC1=O`, for which the EC50 turned out to be 7.2 µM.

On to `N=C(N)NCCC[C@@H]1NC(=O)CNC(=O)[C@@H](Cc2ccc(O)cc2)NC(=O)CNC(=O)[C@H](Cc2ccc3ccccc3c2)NC1=O`, for which the concentration giving a half-maximal response (EC50) worked out at 36 µM.

`N=C(N)NCCC[C@@H]1NC(=O)C2(CCN(C(=N)N)CC2)NC(=O)[C@@H](Cc2ccc(O)cc2)NC(=O)CNC(=O)[C@H](Cc2ccc3ccccc3c2)NC1=O`: the concentration giving a half-maximal response (EC50) turned out to be 0.26 µM.

In the case of `NC(=O)NCCC[C@@H]1NC(=O)[C@H](CCCNC(N)=O)NC(=O)[C@@H](Cc2ccc(O)cc2)NC(=O)CNC(=O)[C@H](Cc2ccc3ccccc3c2)NC1=O`, the EC50 is above 100 µM.

For `N=C(N)NCCC[C@@H]1NC(=O)[C@H](Cc2ccc(NC(=N)N)cc2)NC(=O)[C@@H](Cc2ccc(O)cc2)NC(=O)CNC(=O)[C@H](Cc2ccc3ccccc3c2)NC1=O`, the EC50 is 0.68 µM.

With `N=C(N)NCCC[C@@H]1NC(=O)[C@H](Cc2ccc(N)cc2)NC(=O)[C@@H](Cc2ccc(O)cc2)NC(=O)CNC(=O)[C@H](Cc2ccc3ccccc3c2)NC1=O`, the concentration for a half-maximal effect (EC50) was 15 µM.

`N=C(N)NCCC[C@@H]1NC(=O)C2(CCNCC2)NC(=O)[C@@H](Cc2ccc(O)cc2)NC(=O)CNC(=O)[C@H](Cc2ccc3ccccc3c2)NC1=O`: the half-maximal effective concentration (EC50) turned out to be 0.56 µM.

Regarding `N=C(N)NCCC[C@@H]1NC(=O)[C@@H](Cc2ccc(O)cc2)NC(=O)CNC(=O)[C@H](Cc2ccc3ccccc3c2)NC(=O)[C@H](CCCNC(N)=O)NC1=O`, the EC50 is above 100 µM.
